# Measurements published in US11806359B2 (priority 2020, dated 2023).
# Columns and labels:
# SARS-CoV-2 [1] = assay: microbe, parasite or virus in culture; type: cell-based
# HTLV-1 = HTLV-1 replication and p19Gag particle release from SLB1 cells, Anti-HTLV-1 p19Gag ELISA; type: cell-based, human T-cell leukemia virus type-1; settings: SLB1 cells, 10, 50, 100 μg/ml, 72 hrs
# SARS-CoV-2 [2] = assay: SARS-CoV-2 genome equivalents in supernatant by qRT-PCR (Example 39); type: cell-based; settings: 24 hours-post infection, four highest doses
# Description: The Vero 81 cells described above were subjected to genome analysis determine whether the inhibition of SARS-CoV-2 was at the level of total or infectious particle production. RNA was extracted from the cell culture supernatants of the prophylactic study, and genomic equivalents were quantified via qRT-PCR (Example 39). The prophylactic effect of oleandrin, initially observed via infectious assay, was confirmed at the level of genome equivalents. […]
# To quantify genome copies for the samples, 200 μl of sample was extracted with a 5:1 volume ratio of TRIzol LS (Ambion, Carlsbad, Calif.), utilizing standard manufacturers protocols and resuspending in 11 μl water. Extracted RNA were tested for SARS-CoV-2 by qRT-PCR following a previously published assay (26). Briefly, the N gene was amplified using the following primers and probe: forward primer [5′-[…]-3′] (SEQ ID NO. 1); reverse primer [5′-[…]-3′] (SEQ ID NO. 2); and probe [5′-FAM-[…]-TAMRA-3′; (SEQ ID NO. 3)]. […]
# SARS-CoV-2 [3] = assay: SARS-CoV-2 treatment post-infection in VERO CCL-81 cells, viral titer (Example 34); type: cell-based; settings: treated at 12 h and 24 h post-infection, no pretreatment
# SARS-CoV-2 [4] = assay: SARS-CoV-2 viral titer and infectivity of progeny virions in Vero cells (Example 28); type: cell-based; settings: for reduction in virus load: oleandrin pretreatment
# Procedure: Further proof of the efficacy of oleandrin (oleandrin-containing composition) against coronavirus, e.g. SARS-CoV-2 (COVID-19), was obtained through in vitro evaluation according to Example 28, wherein Vero cells were pretreated with oleandrin and then infected with SARS-CoV-2. Following infection of the cells, the extracellular virus and oleandrin was washed away, and the infected cells were then treated with oleandrin (FIG. 23A: 1 microg/mL in 0.1% v/v aqueous DMSO; FIG. 23C: 0.1 microg/mL in 0.01% v/v aqueous DMSO) or just aqueous DMSO as control vehicle (FIG. 23B: 0.1% v/v aqueous DMSO; FIG. 23D: 0.01% v/v aqueous DMSO). […] The results further indicate that oleandrin inhibits infectivity of progeny virus by a) about 1 log10 without continuous drug treatment; and b) about >3 log10 with continuous drug treatments (without toxicity).
# A stock solution of oleandrin in methanol (10 mg oleandrin/mL) was prepared. The stock solution was used to prepare incubation media containing DMSO (0.1% or 0.01% v/v in aqueous culture medium RPMI 1640 and oleandrin (20 microg/mL, 10 microg/mL, 1.0 microg/mL, or 0.1 microg/mL). The incubation solutions are as follows.
# Uninfected Vero cells (target initial cell count 1×10^6) in culture were incubated in each of the indicated incubation media in vials for 30 min at 37° C. A viral inoculate of SARS-CoV-2 was then added to each vial to achieve a target initial viral titer (about PFU/mL 1×10^4). The target MOI (multiplicity of infection) of about 0.1. The solutions were incubated for an additional 2 h at 37° C. to achieve infection of the Vero cells. The infected Vero cells were then washed with control vehicle to remove extracellular virus and oleandrin. New aliquots of each incubation medium were added to each respective vial of infected Vero cells. Those receiving oleandrin in the second aliquot were denoted as “+ treatment Post-infection”, and those not receiving oleandrin in the second aliquot were denoted as “− treatment Post-infection” (FIGS. 23A-23D). The viral titer for each vial was determined at about 24 h and about 48 h after infection.
# The data acquired included quantity of virus produced, infectivity of progeny virus, and relative safety (nontoxicity) of oleandrin in infected and uninfected cells.
# Vero-E6 cells = settings: African green monkey
# HIV-1 = settings: cited from earlier work
compound,measurement,setting,value
CO[C@H]1C[C@H](O[C@H]2CC[C@@]3(C)[C@H](CC[C@@H]4[C@@H]3CC[C@]3(C)[C@@H](C5=CC(=O)OC5)[C@@H](OC(C)=O)C[C@]43O)C2)O[C@@H](C)[C@@H]1O [oleandrin],concentrations with substantial antiviral activity,SARS-CoV-2 [1],above 0.01 microg/mL
same,effect on titer,SARS-CoV-2 [1],significant reduction in titer
same,effect on titer compared to DMSO control,SARS-CoV-2 [1],no significant effect
same,viral titer,SARS-CoV-2 [1],substantial reduction in viral titer
same,viral titer at the two higher doses,SARS-CoV-2 [1],essentially to or below the limit of detection
same,EC50,"SARS-CoV-2 [1]; Severe acute respiratory syndrome coronavirus 2, 24 h",12 ng/mL
same,EC50,"SARS-CoV-2 [1]; Severe acute respiratory syndrome coronavirus 2, 48 h",7.07 ng/mL
same,HTLV-1 replication or release of p19Gag-containing virus particles,HTLV-1,does not significantly inhibit
same,toxicity to Vero cells,Vero cells,not overly toxic
same,SARS-CoV-2 genomes in the supernatant,SARS-CoV-2 [2],significantly decreased
same,antiviral activity post infection with a single treatment,SARS-CoV-2 [3],able to exert antiviral activity
same,reduction of initial viral infection,SARS-CoV-2 [4]; just 30 min preincubation of Vero cells,only slightly effective
same,reduction in virus load,SARS-CoV-2 [4]; 24-h time,1368 fold
same,reduction in virus load,SARS-CoV-2 [4]; 48-h time point,369 fold
same,inhibition of infectivity of progeny virus,SARS-CoV-2 [4]; with continuous drug treatments (without toxicity),> 3 log10
same,inhibition of infectivity of progeny virus,SARS-CoV-2 [4]; without continuous drug treatment,about 1 log10
same,concentration at which cellular toxicity appeared,Vero-E6 cells,≥ 1000 ng/mL
same,Vero cells remaining viable,Vero-E6 cells; 24 h,about 80%
same,anti-viral activity against HIV-1,HIV-1,anti-HIV activity
